Results from publication PMC3723632, “A Multi-targeted Drug Candidate with Dual Anti-HIV and Anti-HSV Activity” (PLoS Pathogens, 2013).
In brackets after ≈: the same amount, converted by molar mass.

Tests used:
PBMC [1] = experiment: Chemokine mRNA expression (RT-PCR) in PBMC; assay type: cell-based, human; details: 100 µg/ml, 4 h
Procedure: Figure 9 Expression of CC-chemokines, CCR5 and chemokine mRNA expression in PBMC cultures after drug treatment. Panel A: Production of CC-chemokines by PBMC and the effects of adefovir, tenofovir, and PMEO-DAPym on the expression of the CCR5 receptor. Freshly isolated PBMCs from four healthy donors were incubated for 24 h with medium only (NC) or with adefovir, tenofovir, or PMEO-DAPym. We collected the supernatants and measured the concentrations of MIP-1α (▪), MIP-1β (▴), and RANTES (•) using a Bioplex system (Bio-Rad, Hercules, CA). Shown are means ± SEM. The cells were also collected, and the expression of the CCR5 receptor (□) was measured with flow cytometry using the PE-labeled CCR5 (clone 2D7) mAb; it is shown as percentage of control (± SEM) from four independent representative experiments. Panel B: Chemokine mRNA expression upon PMEO-DAPym exposure to PBMC. RT-PCR analysis of MIP-1α, MIP-1β, RANTES, and GAPDH (control) expression in PBMC treated with 100-µg/ml PMEO-DAPym for 4 h. Similar results were obtained with PBMC from three different donors. Results from one representative donor are shown.
We isolated total RNA from approximately 10^6 PBMC using the RNeasy Mini Kit (QIAGEN, Hilden, Germany). To eliminate potential genomic DNA contamination, the samples were treated with DNase I (Roche). […]

PBMC [2] = experiment: PBMC viability (trypan blue dye exclusion, flow cytometry); assay type: cell-based, human; details: 20, 100 and 500 µg/ml
CXCR4 or CXCR3 = experiment: Flow cytometry of CXCR4 and CXCR3 expression on PBMC; assay type: cell-based, human; details: data not shown
Procedure: PBMC were cultured in the presence of adefovir, tenofovir, and PMEO-DAPym and incubated at 37°C in a humidified, 5% CO2-controlled atmosphere. The expression of cellular activation markers was measured after 3 days of culture. Briefly, after washing the cells with PBS containing 2% FCS, we incubated them with PerCP-conjugated anti-CD4 mAb (clone SK3) in combination with PE-conjugated anti-CD25, anti-CD69, or anti-HLA-DR mAbs for 30 min at room temperature. For aspecific background staining, cells were stained in parallel with Simultest Control IgG γ1/γ2a and PerCP-conjugated mouse IgG1. Finally, the cells were washed with PBS, fixed with 1% formaldehyde solution, and analyzed with a FACSCalibur (BD Biosciences, San Jose, CA); data were acquired with CellQuest software and further analyzed with the FLOWJO software (Tree Star, San Carlos, CA). The expression of the chemokine receptors was measured after 24 h, and PBMC were incubated with PerCP-conjugated anti-CD4 mAb (clone SK3) in combination with APC-conjugated anti-CXCR4 mAb (clone 12G5) and PE-conjugated anti-CCR5 (clone 2D7) or anti-CXCR3 (clone 1C6). To evaluate the biological effects of the β-chemokines produced by drug-treated PBMC, freshly isolated PBMC were incubated for 1 h at 37°C with supernatants collected from PBMC cultures treated with compounds for 24 h. […]

HSV-1 (RV-174) = experiment: Virus yield reduction assay in HEL cells, HSV-1 clinical isolate; details: for EC90: Human alphaherpesvirus 1, HEL
Procedure: (§1) These assays were carried out in HEL cell monolayers at different times post infection. […] After 2 h at 37°C, the cells were washed and medium containing different concentrations of PMEO-DAPym (in duplicate) was added. Following 24, 48, and 72 h of incubation, we released the viruses by freeze-thawing and then titrated them using a plaque assay in HEL cells.

HSV-2 (NS and RV-194) = experiment: Virus yield reduction assay in HEL cells, HSV-2 clinical isolates; details: for EC90: Human alphaherpesvirus 2, HEL
Procedure: as §1

HSV-1 and HSV-2 = experiment: Organotypic epithelial raft cultures of PHKs, virus production; assay type: cell-based; details: HSV-1 and HSV-2, 20 µg/ml
Procedure: Figure 3 Inhibitory activities of tenofovir, adefovir, and PMEO-DAPym against laboratory HSV-1 and HSV-2 strains in organotypic epithelial raft cultures. Panels A (HSV-1) and B (HSV-2): Drugs at different concentrations were added to the raft cell cultures on the day of infection (10 days after initiation of differentiation). The drugs remained in the presence of the cells for 5 days until the rafts were frozen for determination of virus production with a plaque assay in HEL cell cultures. Error bars represent S.D.
The epithelial cells were allowed to stratify. […] Virus production per raft was then calculated.

## Nc1cc(OCCOCP(=O)(O)O)nc(N)n1 [PMEO-DAPym, 6-phosphonylmethoxyethoxy-2,4-diaminopyrimidine]
PBMC [1]
  increase in MIP-1β and MIP-1α mRNA expression: > 9 fold
PBMC [2]
  PBMC viability: did not affect PBMC viability
CXCR4 or CXCR3
  downregulation of CXCR4 or CXCR3: No downregulation
HSV-1 (RV-174); 24 h, RV-174, moi = 5x10^-3, 24 hours
  EC90: < 1 µg/mL
HSV-1 (RV-174); 24 h, RV-174, moi = 5x10^-4, 24 hours
  EC90: 2.27 µg/mL (≈ 8.59 µM)
HSV-1 (RV-174); 48 h, RV-174, moi = 5x10^-3, 48 hours
  EC90: 1 µg/mL (≈ 3.79 µM)
HSV-1 (RV-174); 48 h, RV-174, moi = 5x10^-4, 48 hours
  EC90: < 1 µg/mL
HSV-1 (RV-174); 72 h, RV-174, moi = 5x10^-3, 72 hours
  EC90: 1 µg/mL (≈ 3.79 µM)
HSV-1 (RV-174); 72 h, RV-174, moi = 5x10^-4, 72 hours
  EC90: < 1 µg/mL
HSV-1 (RV-174); RV-174, moi = 5x10^-3, 24 hours
  EC99: 3.81 µg/mL
HSV-1 (RV-174); RV-174, moi = 5x10^-3, 48 hours
  EC99: 4.96 µg/mL
HSV-1 (RV-174); RV-174, moi = 5x10^-3, 72 hours
  EC99: 3.92 µg/mL
HSV-1 (RV-174); RV-174, moi = 5x10^-4, 24 hours
  EC99: 6.26 µg/mL
HSV-1 (RV-174); RV-174, moi = 5x10^-4, 48 hours
  EC99: 2.74 µg/mL
HSV-1 (RV-174); RV-174, moi = 5x10^-4, 72 hours
  EC99: 3.59 µg/mL
HSV-2 (NS and RV-194); 24 h, Strain NS, moi = 1x10^-3, 24 hours
  EC90: < 1 µg/mL
HSV-2 (NS and RV-194); 24 h, Strain NS, moi = 1x10^-4, 24 hours
  EC90: < 1 µg/mL
HSV-2 (NS and RV-194); 24 h, Strain RV-194, moi = 1x10^-3, 24 hours
  EC90: 2.08 µg/mL (≈ 7.87 µM)
HSV-2 (NS and RV-194); 24 h, Strain RV-194, moi = 1x10^-4, 24 hours
  EC90: < 1 µg/mL
HSV-2 (NS and RV-194); 48 h, Strain NS, moi = 1x10^-3, 48 hours
  EC90: < 1 µg/mL
HSV-2 (NS and RV-194); 48 h, Strain NS, moi = 1x10^-4, 48 hours
  EC90: < 1 µg/mL
HSV-2 (NS and RV-194); 48 h, Strain RV-194, moi = 1x10^-3, 48 hours
  EC90: < 1 µg/mL
HSV-2 (NS and RV-194); 48 h, Strain RV-194, moi = 1x10^-4, 48 hours
  EC90: < 1 µg/mL
HSV-2 (NS and RV-194); 72 h, Strain NS, moi = 1x10^-3, 72 hours
  EC90: 1.34 µg/mL (≈ 5.07 µM)
HSV-2 (NS and RV-194); 72 h, Strain NS, moi = 1x10^-4, 72 hours
  EC90: < 1 µg/mL
HSV-2 (NS and RV-194); 72 h, Strain RV-194, moi = 1x10^-3, 72 hours
  EC90: 1 µg/mL (≈ 3.79 µM)
HSV-2 (NS and RV-194); 72 h, Strain RV-194, moi = 1x10^-4, 72 hours
  EC90: < 1 µg/mL
HSV-2 (NS and RV-194); Strain NS, moi = 1x10^-3, 24 hours
  EC99: 3.0 µg/mL
HSV-2 (NS and RV-194); Strain NS, moi = 1x10^-3, 48 hours
  EC99: 3.28 µg/mL
HSV-2 (NS and RV-194); Strain NS, moi = 1x10^-3, 72 hours
  EC99: 3.63 µg/mL
HSV-2 (NS and RV-194); Strain NS, moi = 1x10^-4, 24 hours
  EC99: 3.6 µg/mL
HSV-2 (NS and RV-194); Strain NS, moi = 1x10^-4, 48 hours
  EC99: 1.0 µg/mL
HSV-2 (NS and RV-194); Strain NS, moi = 1x10^-4, 72 hours
  EC99: 2.3 µg/mL
HSV-2 (NS and RV-194); Strain RV-194, moi = 1x10^-3, 24 hours
  EC99: 7.15 µg/mL
HSV-2 (NS and RV-194); Strain RV-194, moi = 1x10^-3, 48 hours
  EC99: 1.0 µg/mL
HSV-2 (NS and RV-194); Strain RV-194, moi = 1x10^-3, 72 hours
  EC99: 3.58 µg/mL
HSV-2 (NS and RV-194); Strain RV-194, moi = 1x10^-4, 24 hours
  EC99: < 1 µg/mL
HSV-2 (NS and RV-194); Strain RV-194, moi = 1x10^-4, 48 hours
  EC99: 1.58 µg/mL
HSV-2 (NS and RV-194); Strain RV-194, moi = 1x10^-4, 72 hours
  EC99: 2.62 µg/mL

## C[C@H](Cn1cnc2c(N)ncnc21)OCP(=O)(O)O [Tenofovir, 9-(2-phosphonylmethoxypropyl)adenine]
HSV-1 and HSV-2
  reduction of herpesvirus replication: < 0.5 log10
